Measured values as given in article PMC2950628 (Journal of medicinal chemistry, 2008).

What was measured:
[1] = Solubility in D2O confirmed by NMR; type: physicochemical
PDE4 = settings: Table 5, external test set s1–s9 from literature ref 19; cited from earlier work

Compound	actual pIC50 (PDE4)	further results
CCCCC(=O)c1ccc(OC)c(OC2CCNCC2)c1 [5i, 1-[4-Methoxy-3-(piperidin-4-yloxy)phenyl]pentan-1-one]	–	solubility [1]: ≤ 800 µM
CCCC(=O)c1ccc(OC(F)F)c(Oc2ccccn2)c1 [5zi, 1-[4-Difluoromethoxy-3-(pyridin-2-yloxy)phenyl]butan-1-one]	–	solubility / behaviour in NMR sample ([1]; NMR study conditions): solubility and nonspecific binding problems
COc1ccc(C(=O)Nc2ccccc2F)cc1OC1CCCC1 [s1]	4.97	–
COc1ccc(C(=O)Nc2ccccc2C(F)(F)F)cc1OC1CCCC1 [s2]	5.51	–
COc1ccc(C(=O)Nc2c(Cl)cccc2Cl)cc1OC1CCCC1 [s3]	7.55	–
COc1ccc(C(=O)Nc2c(F)cccc2F)cc1O [s4]	4.43	–
COc1ccc(C(=O)Nc2c(F)cccc2F)cc1OC1CCCCC1 [s5]	6.40	–
COc1ccc(C(=O)Nc2c(F)cccc2F)cc1OC1CCCC1 [s6]	7.15	–
COc1ccc(C(=O)Nc2ccccc2Cl)cc1OC [s7]	6.19	–
CCCOc1cc(C(=O)Nc2c(F)cccc2F)ccc1OC [s8]	5.80	–
COc1ccc(C(=S)Nc2c(Cl)cccc2Cl)cc1OC1CCCC1 [s9]	6.70	–
